# Test results as given in patent US9845330B2, “6-nitro-2,3-dihydroimidazo[2,1-b]oxazoles and a process for the preparation thereof” (priority 2013, dated 2017).
# Key:
# [1] = test system: M. tuberculosis MDR (resistant to isoniazid and rifampicin); assay: microbe, parasite or virus in culture; format: cell-based; details: Mycobacterium tuberculosis, 504 h, read-out: MIC M. tb MDR
# [2] = test system: M. tuberculosis XDR (resistant to isoniazid, rifampicin, amikacin and moxifloxacin); assay: microbe, parasite or virus in culture; format: cell-based; details: Mycobacterium tuberculosis, 504 h, read-out: MIC M. tb XDR
Compound,MIC [1],MIC [2]
"C[C@]1(COc2ccc(-c3cc(-c4ccc(OC(F)(F)F)cc4)on3)cc2)Cn2cc([N+](=O)[O-])nc2O1 [IC10, (R)-2-{4-[5-(4-trifluoromethoxyphenyl)isoxazol-3-yl]phenoxymethyl}-2,3-dihydro-2-methyl-6-nitroimidazo[2,1-b]oxazole]",0.5 µg/mL,0.5 µg/mL
"CCCCCc1cc(-c2ccc(OC[C@@]3(C)Cn4cc([N+](=O)[O-])nc4O3)cc2)no1 [IC11, (R)-2-{4-[5-pentylisoxazol-3-yl]phenoxymethyl}-2,3-dihydro-2-methyl-6-nitroimidazo[2,1-b]oxazole]",32 µg/mL,32 µg/mL
"CCCCCCCc1cc(-c2ccc(OC[C@@]3(C)Cn4cc([N+](=O)[O-])nc4O3)cc2)no1 [IC12, (R)-2-{4-[5-heptylisoxazol-3-yl]phenoxymethyl}-2,3-dihydro-2-methyl-6-nitroimidazo[2,1-b]oxazole]",2 µg/mL,2 µg/mL
"C[C@]1(COc2ccc(-c3cc(COc4ccc(OC(F)(F)F)cc4)on3)cc2)Cn2cc([N+](=O)[O-])nc2O1 [IC13, (R)-2-{4-[5-(4-trifluoromethoxyphenoxymethyl)isoxazol-3-yl]phenoxymethyl}-2,3-dihydro-2-methyl-6-nitroimidazo[2,1-b]oxazole]",0.12 µg/mL,0.12 µg/mL
"C[C@]1(COc2ccc(-c3cc(COc4ccc(F)cc4)on3)cc2)Cn2cc([N+](=O)[O-])nc2O1 [IC14, (R)-2-{4-[5-(4-fluorophenoxymethyl)isoxazol-3-yl]phenoxymethyl}-2,3-dihydro-2-methyl-6-nitroimidazo[2,1-b]oxazole]",0.12 µg/mL,0.12 µg/mL
"C[C@]1(COc2ccc(-c3cc(COc4ccc(C(F)(F)F)cc4)on3)cc2)Cn2cc([N+](=O)[O-])nc2O1 [IC15, (R)-2-{4-[5-(4-trifluoromethylphenoxymethyl)isoxazol-3-yl]phenoxymethyl}-2,3-dihydro-2-methyl-6-nitroimidazo[2,1-b]oxazole]",0.5 µg/mL,0.5 µg/mL
"C[C@]1(COc2ccc(-c3cc(COc4ccccc4F)on3)cc2)Cn2cc([N+](=O)[O-])nc2O1 [IC16, (R)-2-{4-[5-(2-fluorophenoxymethyl)isoxazol-3-yl]phenoxymethyl}-2,3-dihydro-2-methyl-6-nitroimidazo[2,1-b]oxazole]",0.5 µg/mL,0.5 µg/mL
"Cc1ccc(OCc2cc(-c3ccc(OC[C@@]4(C)Cn5cc([N+](=O)[O-])nc5O4)cc3)no2)cc1 [IC17, (R)-2-{4-[5-(4-methylphenoxymethyl)isoxazol-3-yl]phenoxymethyl}-2,3-dihydro-2-methyl-6-nitroimidazo[2,1-b]oxazole]",0.5 µg/mL,0.5 µg/mL
"CC(C)c1ccc(OCc2cc(-c3ccc(OC[C@@]4(C)Cn5cc([N+](=O)[O-])nc5O4)cc3)no2)cc1 [IC18, (R)-2-{4-[5-(4-isopropylphenoxymethyl)isoxazol-3-yl]phenoxymethyl}-2,3-dihydro-2-methyl-6-nitroimidazo[2,1-b]oxazole]",0.25 µg/mL,0.25 µg/mL
"CCc1ccc(OCc2cc(-c3ccc(OC[C@@]4(C)Cn5cc([N+](=O)[O-])nc5O4)cc3)no2)cc1 [IC19, (R)-2-{4-[5-(4-ethylphenoxymethyl)isoxazol-3-yl]phenoxymethyl}-2,3-dihydro-2-methyl-6-nitroimidazo[2,1-b]oxazole]",2 µg/mL,2 µg/mL
"CCC(C)c1ccc(OCc2cc(-c3ccc(OC[C@@]4(C)Cn5cc([N+](=O)[O-])nc5O4)cc3)no2)cc1 (stereo partly drawn) [IC20, (R)-2-{4-[5-(4-sec-butylphenoxymethyl)isoxazol-3-yl]phenoxymethyl}-2,3-dihydro-2-methyl-6-nitroimidazo[2,1-b]oxazole]",2 µg/mL,2 µg/mL
"C[C@]1(COc2ccc(-c3cc(COc4ccccc4)on3)cc2)Cn2cc([N+](=O)[O-])nc2O1 [IC21, (R)-2-{4-[5-(phenoxymethyl)isoxazol-3-yl]phenoxymethyl}-2,3-dihydro-2-methyl-6-nitroimidazo[2,1-b]oxazole]",4 µg/mL,4 µg/mL
"C[C@]1(COc2ccc(-c3cc(COc4ccc(F)cc4F)on3)cc2)Cn2cc([N+](=O)[O-])nc2O1 [IC22, (R)-2-{4-[5-(2,4-difluorophenoxymethyl)isoxazol-3-yl]phenoxymethyl}-2,3-dihydro-2-methyl-6-nitroimidazo[2,1-b]oxazole]",0.12 µg/mL,0.12 µg/mL
"C[C@]1(COc2ccc(NC(=O)Nc3ccc(F)cc3)cc2)Cn2cc([N+](=O)[O-])nc2O1 [IIA1, (R)-1-(4-fluorophenyl)-3-{4-(2-methyl-6-nitro-2,3-dihydroimidazo[2,1-b]oxazol-2-yl)methoxyphenyl}urea]",2 µg/mL,2 µg/mL
"CCc1ccc(NC(=O)Nc2ccc(OC[C@@]3(C)Cn4cc([N+](=O)[O-])nc4O3)cc2)cc1 [IIA2, (R)-1-(4-ethylphenyl)-3-{4-(2-methyl-6-nitro-2,3-dihydroimidazo[2,1-b]oxazol-2-yl)methoxyphenyl}urea]",0.5 µg/mL,0.5 µg/mL
"C[C@]1(COc2ccc(NC(=O)Nc3ccc(C(F)(F)F)cc3)cc2)Cn2cc([N+](=O)[O-])nc2O1 [IIA3, (R)-1-(4-trifluoromethylphenyl)-3-{4-(2-methyl-6-nitro-2,3-dihydroimidazo[2,1-b]oxazol-2-yl)methoxyphenyl}urea]",0.12 µg/mL,0.12 µg/mL
"Cc1ccc(NC(=O)Nc2ccc(OC[C@@]3(C)Cn4cc([N+](=O)[O-])nc4O3)cc2)cc1 [IIA4, (R)-1-(4-methylphenyl)-3-{4-(2-methyl-6-nitro-2,3-dihydroimidazo[2,1-b]oxazol-2-yl)methoxyphenyl}urea]",0.06 µg/mL,0.06 µg/mL
"COc1ccc(NC(=O)Nc2ccc(OC[C@@]3(C)Cn4cc([N+](=O)[O-])nc4O3)cc2)cc1 [IIA5, (R)-1-(4-methoxyphenyl)-3-{4-(2-methyl-6-nitro-2,3-dihydroimidazo[2,1-b]oxazol-2-yl)methoxyphenyl}urea]",1 µg/mL,1 µg/mL
"C[C@]1(COc2ccc(NC(=O)Nc3ccc(OC(F)(F)F)cc3)cc2)Cn2cc([N+](=O)[O-])nc2O1 [IIA6, (R)-1-(4-trifluoromethoxyphenyl)-3-{4-(2-methyl-6-nitro-2,3-dihydroimidazo[2,1-b]oxazol-2-yl)methoxyphenyl}urea]",0.5 µg/mL,0.5 µg/mL
"COc1ccc(NC(=S)Nc2ccc(OC[C@@]3(C)Cn4cc([N+](=O)[O-])nc4O3)cc2)cc1 [IIA7, (R)-1-(4-methoxyphenyl)-3-{4-(2-methyl-6-nitro-2,3-dihydroimidazo[2,1-b]oxazol-2-yl)methoxyphenyl}thiourea]",2 µg/mL,2 µg/mL
"C[C@]1(COc2ccc(NC(=S)Nc3ccc(OC(F)(F)F)cc3)cc2)Cn2cc([N+](=O)[O-])nc2O1 [IIA8, (R)-1-(4-trifluoromethoxyphenyl)-3-{4-(2-methyl-6-nitro-2,3-dihydroimidazo[2,1-b]oxazol-2-yl)methoxyphenyl}thiourea]",2 µg/mL,2 µg/mL
"C[C@]1(COc2ccc(NC(=S)Nc3ccc(F)cc3)cc2)Cn2cc([N+](=O)[O-])nc2O1 [IIA9, (R)-1-(4-fluorophenyl)-3-{4-(2-methyl-6-nitro-2,3-dihydroimidazo[2,1-b]oxazol-2-yl)methoxyphenyl}thiourea]",4 µg/mL,4 µg/mL
"C[C@]1(COc2ccc(NC(=S)Nc3ccc(C(F)(F)F)cc3)cc2)Cn2cc([N+](=O)[O-])nc2O1 [IIA10, (R)-1-(4-trifluoromethylphenyl)-3-{4-(2-methyl-6-nitro-2,3-dihydroimidazo[2,1-b]oxazol-2-yl)methoxyphenyl}thiourea]",4 µg/mL,4 µg/mL
"Cc1ccc(NS(=O)(=O)c2ccc(OC[C@@]3(C)Cn4cc([N+](=O)[O-])nc4O3)cc2)cc1 [IIB1, (R)-4-{(2-methyl-6-nitro-2,3-dihydroimidazo[2,1-b]oxazol-2-yl)methoxy}-N-(p-tolyl)benzenesulfonamide]",2 µg/mL,2 µg/mL
"C[C@]1(COc2ccc(S(=O)(=O)Nc3ccc(OC(F)(F)F)cc3)cc2)Cn2cc([N+](=O)[O-])nc2O1 [IIB2, (R)-4-{(2-methyl-6-nitro-2,3-dihydroimidazo[2,1-b]oxazol-2-yl)methoxy}-N-(4 trifluoromethoxyphenyl)benzenesulfonamide]",2 µg/mL,2 µg/mL
"C[C@]1(COc2ccc(S(=O)(=O)Nc3ccc(C(F)(F)F)cc3)cc2)Cn2cc([N+](=O)[O-])nc2O1 [IIB3, (R)-4-{(2-methyl-6-nitro-2,3-dihydroimidazo[2,1-b]oxazol-2-yl)methoxy}-N-(4 trifluoromethylphenyl)benzenesulfonamide]",2 µg/mL,2 µg/mL
"CN(c1ccccc1)S(=O)(=O)c1ccc(OC[C@@]2(C)Cn3cc([N+](=O)[O-])nc3O2)cc1 [IIB4, (R)—N-methyl-4-{(2-methyl-6-nitro-2,3-dihydroimidazo[2,1-b]oxazol-2-yl)methoxy}-N-phenylbenzenesulfonamide]",4 µg/mL,4 µg/mL
"Cc1ccc(N(C)S(=O)(=O)c2ccc(OC[C@@]3(C)Cn4cc([N+](=O)[O-])nc4O3)cc2)cc1 [IIB5, (R)—N-methyl-4-{(2-methyl-6-nitro-2,3-dihydroimidazo[2,1-b]oxazol-2-yl)methoxy}-N-(p-tolyl)benzenesulfonamide]",4 µg/mL,4 µg/mL
"CN(c1ccc(C(F)(F)F)cc1)S(=O)(=O)c1ccc(OC[C@@]2(C)Cn3cc([N+](=O)[O-])nc3O2)cc1 [IIB6, (R)—N-methyl-4-{(2-methyl-6-nitro-2,3-dihydroimidazo[2,1-b]oxazol-2-yl)methoxy}-N-(p-trifluoromethylphenyl)benzenesulfonamide]",1 µg/mL,1 µg/mL
"C[C@]1(COc2ccc(S(=O)(=O)N3CCN(c4ccccc4)CC3)cc2)Cn2cc([N+](=O)[O-])nc2O1 [IIC1, (R)-2-{4-(4-phenylpiperazin-1-yl)sulfonylphenoxymethyl}-2,3-dihydro-2-methyl-6-nitroimidazo[2,1-b]oxazole]",1 µg/mL,1 µg/mL
